Measured values taken from patent US20260262643A1, “HERBICIDAL BENZOXAZINES” (FMC CORPORATION, priority 2022, published 2026).

Experiments:
[1] = test system: barnyardgrass; assay: Test C preemergence; assay type: in vivo, Echinochloa crusgalli; conditions: 0 to 100 scale (0 no effect, 100 complete control); for Plant response rating, Barnyardgrass: Preemergence, 500 g ai/ha, visual rating after 10 days; for Barnyardgrass plant response rating: Test C, preemergence, 125 g ai/ha
How it was run: (§1)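 Greenhouse herbicide screen, 10-day duration. Test chemicals in solvent/surfactant blend were sprayed onto soil at sowing (pre) or onto 2–10 cm seedlings at one to two leaves (post); injury scored visually against controls, 0 no effect to 100 complete control.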

[2] = test system: blackgrass; assay: Test C preemergence; assay type: in vivo, Alopecurus myosuroides; conditions: 0 to 100 scale (0 no effect, 100 complete control); for Plant response rating, Blackgrass: Preemergence, 500 g ai/ha, visual rating after 10 days; for Blackgrass plant response rating: Test C, preemergence, 125 g ai/ha
How it was run: as §1

[3] = test system: corn; assay: Test C preemergence; assay type: in vivo, Zea mays; conditions: 0 to 100 scale (0 no effect, 100 complete control); for Plant response rating, Corn: Preemergence, 500 g ai/ha, visual rating after 10 days; for Corn plant response rating: Test C, preemergence, 125 g ai/ha
How it was run: as §1

[4] = test system: green foxtail; assay: Test C preemergence; assay type: in vivo, Setaria viridis; conditions: 0 to 100 scale (0 no effect, 100 complete control); for Plant response rating, Foxtail, Green: Preemergence, 500 g ai/ha, visual rating after 10 days; for Foxtail, Green plant response rating: Test C, preemergence, 125 g ai/ha
How it was run: as §1

[5] = test system: kochia; assay: Test C preemergence; assay type: in vivo, Bassia scoparia; conditions: 0 to 100 scale (0 no effect, 100 complete control); for Plant response rating, Kochia: Preemergence, 500 g ai/ha, visual rating after 10 days; for Kochia plant response rating: Test C, preemergence, 125 g ai/ha
How it was run: as §1

[6] = test system: oat, wild; assay: Test C preemergence; assay type: in vivo, Avena fatua; conditions: 0 to 100 scale (0 no effect, 100 complete control); for Plant response rating, Oat, Wild: Preemergence, 500 g ai/ha, visual rating after 10 days; for Oat, Wild plant response rating: Test C, preemergence, 125 g ai/ha
How it was run: as §1

[7] = test system: pigweed, palmer; assay: Test C preemergence; assay type: in vivo, Amaranthus palmeri; conditions: 0 to 100 scale (0 no effect, 100 complete control); for Plant response rating, Pigweed, Palmer: Preemergence, 500 g ai/ha, visual rating after 10 days; for Pigweed, Palmer plant response rating: Test C, preemergence, 125 g ai/ha
How it was run: as §1

[8] = test system: ragweed; assay: Test C preemergence; assay type: in vivo, Ambrosia artemisiifolia; conditions: 0 to 100 scale (0 no effect, 100 complete control); for Plant response rating, Ragweed: Preemergence, 500 g ai/ha, visual rating after 10 days; for Ragweed plant response rating: Test C, preemergence, 125 g ai/ha
How it was run: as §1

[9] = test system: ryegrass, Italian; assay: Test C preemergence; assay type: in vivo, Lolium multiflorum; conditions: 0 to 100 scale (0 no effect, 100 complete control); for Plant response rating, Ryegrass, Italian: Preemergence, 500 g ai/ha, visual rating after 10 days; for Ryegrass, Italian plant response rating: Test C, preemergence, 125 g ai/ha
How it was run: as §1

[10] = test system: soybean; assay: Test C preemergence; assay type: in vivo, Glycine max; conditions: 0 to 100 scale (0 no effect, 100 complete control); for Plant response rating, Soybean: Preemergence, 500 g ai/ha, visual rating after 10 days; for Soybean plant response rating: Test C, preemergence, 125 g ai/ha
How it was run: as §1

[11] = test system: wheat; assay: Test C preemergence; assay type: in vivo, Triticum aestivum; conditions: 0 to 100 scale (0 no effect, 100 complete control); for Plant response rating, Wheat: Preemergence, 500 g ai/ha, visual rating after 10 days; for Wheat plant response rating: Test C, preemergence, 125 g ai/ha
How it was run: as §1

[12] = test system: barnyardgrass; assay: Test C postemergence; assay type: in vivo, Echinochloa crusgalli; conditions: 10 days
How it was run: as §1

[13] = test system: blackgrass; assay: Test C postemergence; assay type: in vivo, Alopecurus myosuroides; conditions: 10 days
How it was run: as §1

[14] = test system: corn; assay: Test C postemergence; assay type: in vivo, Zea mays; conditions: 10 days
How it was run: as §1

[15] = test system: green foxtail; assay: Test C postemergence; assay type: in vivo, Setaria viridis; conditions: 10 days
How it was run: as §1

[16] = test system: kochia; assay: Test C postemergence; assay type: in vivo, Bassia scoparia; conditions: 10 days
How it was run: as §1

[17] = test system: oat, wild; assay: Test C postemergence; assay type: in vivo, Avena fatua; conditions: 10 days
How it was run: as §1

[18] = test system: pigweed, palmer; assay: Test C postemergence; assay type: in vivo, Amaranthus palmeri; conditions: 10 days
How it was run: as §1

[19] = test system: ragweed; assay: Test C postemergence; assay type: in vivo, Ambrosia artemisiifolia; conditions: 10 days
How it was run: as §1

[20] = test system: ryegrass, Italian; assay: Test C postemergence; assay type: in vivo, Lolium multiflorum; conditions: 10 days
How it was run: as §1

[21] = test system: soybean; assay: Test C postemergence; assay type: in vivo, Glycine max; conditions: 10 days
How it was run: as §1

[22] = test system: wheat; assay: Test C postemergence; assay type: in vivo, Triticum aestivum; conditions: 10 days
How it was run: as §1

[23] = test system: galium; assay: Test C postemergence; assay type: in vivo, Galium aparine; conditions: 10 days
How it was run: as §1

[24] = test system: horseweed; assay: Test C postemergence; assay type: in vivo, Erigeron canadensis; conditions: 10 days
How it was run: as §1

[25] = test system: barnyardgrass; assay: Test D flooded paddy test; assay type: in vivo, Echinochloa crus-galli; conditions: 250 g ai/ha, applied to paddy water, visual rating after 13 to 14 days, scale 0 to 100 (0 no effect, 100 complete control)
How it was run: (§2)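 Plants grown to the 2-leaf stage; pots flooded to 3 cm above soil at treatment and held at that depth throughout. Test compounds applied directly to the paddy water. After 13 to 14 days in a greenhouse, response was rated visually versus controls on a 0 (no effect) to 100 (complete control) scale.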

[26] = test system: ducksalad; assay: Test D flooded paddy test; assay type: in vivo, Heteranthera limosa; conditions: 250 g ai/ha, applied to paddy water, visual rating after 13 to 14 days, scale 0 to 100 (0 no effect, 100 complete control)
How it was run: as §2

[27] = test system: rice; assay: Test D flooded paddy test; assay type: in vivo, Oryza sativa; conditions: 250 g ai/ha, applied to paddy water, visual rating after 13 to 14 days, scale 0 to 100 (0 no effect, 100 complete control)
How it was run: as §2

[28] = test system: sedge, umbrella; assay: Test D flooded paddy test; assay type: in vivo, Cyperus difformis; conditions: 250 g ai/ha, applied to paddy water, visual rating after 13 to 14 days, scale 0 to 100 (0 no effect, 100 complete control)
How it was run: as §2

[29] = 125 g ai/ha, postemergence, 0 to 100 scale, 0 no effect, 100 complete control
[30] = Postemergence, 500 g ai/ha, visual 0 to 100 scale (0 no effect, 100 complete control)

Cc1ccc(-n2cnc(C(C)C)n2)cc1C(=O)N1C[C@H](C)Oc2c(F)cccc21 [Compound 242]
Plant response rating, Barnyardgrass [1]: 100 | Barnyardgrass plant response rating [1]: 100 | Plant response rating, Blackgrass [2]: 90 | Blackgrass plant response rating [2]: 90 | Plant response rating, Corn [3]: 70 | Corn plant response rating [3]: 30 | Plant response rating, Foxtail, Green [4]: 100 | Foxtail, Green plant response rating [4]: 100 | Plant response rating, Kochia [5]: 100 | Kochia plant response rating [5]: 90 | Plant response rating, Oat, Wild [6]: 90 | Oat, Wild plant response rating [6]: 90 | Plant response rating, Pigweed, Palmer [7]: 100 | Pigweed, Palmer plant response rating [7]: 100 | Plant response rating, Ragweed [8]: 100 | Ragweed plant response rating [8]: 0 | Plant response rating, Ryegrass, Italian [9]: 100 | Ryegrass, Italian plant response rating [9]: 100 | Plant response rating, Soybean [10]: 100 | Soybean plant response rating [10]: 90 | Plant response rating, Wheat [11]: 90 | Wheat plant response rating [11]: 60 | Plant response rating, Barnyardgrass [12, 29]: 90 | Plant response rating, Barnyardgrass [12, 30]: 100 | Plant response rating, Blackgrass [13, 29]: 80 | Plant response rating, Blackgrass [13, 30]: 100 | Plant response rating, Corn [14, 29]: 60 | Plant response rating, Corn [14, 30]: 90 | Plant response rating, Foxtail, Green [15, 29]: 80 | Plant response rating, Foxtail, Green [15, 30]: 90 | Plant response rating, Kochia [16, 29]: 30 | Plant response rating, Kochia [16, 30]: 80 | Plant response rating, Oat, Wild [17, 29]: 80 | Plant response rating, Oat, Wild [17, 30]: 90 | Plant response rating, Pigweed, Palmer [18, 29]: 80 | Plant response rating, Pigweed, Palmer [18, 30]: 90 | Plant response rating, Ragweed [19, 29]: 60 | Plant response rating, Ragweed [19, 30]: 90 | Plant response rating, Ryegrass, Italian [20, 29]: 90 | Plant response rating, Ryegrass, Italian [20, 30]: 100 | Plant response rating, Soybean [21, 29]: 100 | Plant response rating, Soybean [21, 30]: 100 | Plant response rating, Wheat [22, 29]: 80 | Plant response rating, Wheat [22, 30]: 90 | Plant response rating, Galium [23, 29]: 100 | Plant response rating, Galium [23, 30]: 100 | Plant response rating, Horseweed [24, 29]: 50 | Plant response rating, Horseweed [24, 30]: 80 | Plant response rating, Barnyardgrass (Flood) [25]: 55 | Plant response rating, Ducksalad (Flood) [26]: 95 | Plant response rating, Rice (Flood) [27]: 15 | Plant response rating, Sedge, Umbrella (Flood) [28]: 98

Cc1ccc(-n2cnc(C(C)(F)F)n2)cc1C(=O)N1C[C@H](C)Oc2c(Cl)cccc21 [Compound 248]
Plant response rating, Barnyardgrass [1]: 100 | Barnyardgrass plant response rating [1]: 100 | Plant response rating, Blackgrass [2]: 70 | Blackgrass plant response rating [2]: 30 | Plant response rating, Corn [3]: 50 | Corn plant response rating [3]: 20 | Plant response rating, Foxtail, Green [4]: 100 | Foxtail, Green plant response rating [4]: 100 | Plant response rating, Kochia [5]: 100 | Kochia plant response rating [5]: 100 | Plant response rating, Oat, Wild [6]: 90 | Oat, Wild plant response rating [6]: 40 | Plant response rating, Pigweed, Palmer [7]: 100 | Pigweed, Palmer plant response rating [7]: 100 | Plant response rating, Ragweed [8]: 90 | Ragweed plant response rating [8]: 80 | Plant response rating, Ryegrass, Italian [9]: 100 | Ryegrass, Italian plant response rating [9]: 90 | Plant response rating, Soybean [10]: 100 | Soybean plant response rating [10]: 60 | Plant response rating, Wheat [11]: 90 | Wheat plant response rating [11]: 40 | Plant response rating, Barnyardgrass [12, 29]: 50 | Plant response rating, Barnyardgrass [12, 30]: 70 | Plant response rating, Blackgrass [13, 29]: 90 | Plant response rating, Blackgrass [13, 30]: 100 | Plant response rating, Corn [14, 29]: 60 | Plant response rating, Corn [14, 30]: 70 | Plant response rating, Foxtail, Green [15, 29]: 90 | Plant response rating, Foxtail, Green [15, 30]: 90 | Plant response rating, Kochia [16, 29]: 90 | Plant response rating, Kochia [16, 30]: 100 | Plant response rating, Oat, Wild [17, 29]: 60 | Plant response rating, Oat, Wild [17, 30]: 70 | Plant response rating, Pigweed, Palmer [18, 29]: 90 | Plant response rating, Pigweed, Palmer [18, 30]: 100 | Plant response rating, Ragweed [19, 29]: 90 | Plant response rating, Ragweed [19, 30]: 90 | Plant response rating, Ryegrass, Italian [20, 29]: 90 | Plant response rating, Ryegrass, Italian [20, 30]: 100 | Plant response rating, Soybean [21, 29]: 100 | Plant response rating, Soybean [21, 30]: 100 | Plant response rating, Wheat [22, 29]: 30 | Plant response rating, Wheat [22, 30]: 90 | Plant response rating, Galium [23, 29]: 100 | Plant response rating, Horseweed [24, 29]: 10 | Plant response rating, Horseweed [24, 30]: 40 | Plant response rating, Barnyardgrass (Flood) [25]: 0 | Plant response rating, Ducksalad (Flood) [26]: 0 | Plant response rating, Rice (Flood) [27]: 0 | Plant response rating, Sedge, Umbrella (Flood) [28]: 0
